In US10287292B2, “CXCR7 antagonists” (CHEMOCENTRYX, INC., priority 2012, dated 2019):

Biological target: CXCR7 receptor (Homo sapiens (Human), UniProt P25106)
Assay: Serum Binding Analysis: displacement of 125I-labeled SDF-1 from CXCR7 in 100% human serum
Details: 125I SDF-1 displacement in 100% human serum, MCF-7 and/or MDA-MB-435S CXCR7 transfected cells, 3 hrs at 4° C.; read-out: Avg Ser IC50
Description: The compounds were combined with cells expressing the CXCR7 receptor (e.g., MCF cells or cells transfected to express CXCR7) in the presence of the 125 I-labeled SDF-1 chemokine as detailed in Determination of IC50 values. Reagents and Cells (see below). The ability of the compounds to displace the labeled chemokine from the CXCR7 receptor sites at multiple concentrations was then determined with the screening process.
In Table 1, Avg Bind IC50 refers to the Buffer Binding Analysis described below, while Avg Ser IC50 refers to the Serum Binding Analysis described below. All compounds were prepared as described in the Examples above, or by related methods substituting readily available starting materials.
^125I-labeled SDF-1 was purchased from Perkin-Elmer Life Sciences, Inc. (Boston, Mass.). The MCF-7 (adenocarcinoma; mammary gland) cell line was obtained from the American Type Culture Collection (ATCC, Manassas, Va.) or and was cultured in DMEM (Mediatech, Herndon, Va.) supplemented with 10% fetal bovine serum (FBS) (HyClone Logan, Utah) and bovine insulin (0.01 mg/mL) (Sigma. St. Louis, Mo.) at 37° C. in a humidified incubator at a 5% CO2/air mixture. CXCR7 transfected MDA-MB-435S were produced as described below. MDA-MB-435S human breast cancer line, was purchased from ATCC, and cultured in DMEM/10% FBS medium. The complete coding sequence of the gene encoding CXCR7 (a.k.a. CCXCKR2, hRDC1), was isolated from MCF-7 cells using μMACs mRNA isolation kit (Miltenyi Biotec, Auburn, Calif.). DNA contamination was removed by DNase digestion via RNeasy columns (Qiagen, Inc., Valencia, Calif.) and cDNA was generated using GeneAmp RNA PCR Core Kit (Applied Biosystems, Foster City. Calif.). PCR of cDNA samples was performed using Taq PCR Master Mix kit (Qiagen. Inc.) and hRDC1 primers harboring 5′ and 3′ Not I sites (hRDC1F 5′ […]-3, hRDC1R 5′-[…]-3′) Not I digested PCR product was ligated into Not I digested pcDNA3.1(+)(Invitrogen, Carlsbad, Calif.) and screened for orientation and sequence confirmed. Plasmid DNA was then isolated from overnight bacterial cultures by Maxiprep (Qiagen, Inc.). Plasmid DNA (10 μg) was added to MDA-MB-435s cells and cells were electroporated (0.22 kV, 960 uF) via Gene Pulser (Biorad laboratories, Hercules, Calif.). 48 hr post-electroporation, cells were transferred to selection medium (600 ug/ml G418).
In order to more properly assess the binding efficacy of the compounds, radioligand binding assays were carried out in the presence of 100% human serum to more accurately reflect the in vivo environment. […] Target compounds were tested to determine their ability to bind with CXCR7 sites on MCF-7 and/or MDA-MB-435S CXCR7 transfected cells. Efficiency-maxim/zed radioligand binding using filtration protocols as described in Dairaghi D J, et al., HHV8-encoded vMIP-I selectively engages chemokine receptor CCR5. Agonist and antagonist profiles of viral chemokines., J. Biol. Chem. 1999 Jul. 30; 274(31): 21569-74 and Gosling J, et al., Cutting edge: identification of a novel chemokine receptor that binds dendritic cell- and T cell-active chemokines including ELC, SLC, and TECK, J. Immunol. 2000 Mar. 15; 164(6):2851-6 was used.
In these assays, MCF-7 and/or MDA-MB-435S cells were interrogated with the target compounds and the ability of these compounds to displace 125 I radiolabeled SDF-1 was assessed using the protocol described in Dairaghi and Gosling. The target compounds were added to the plate to the indicated concentration followed by addition of cells and radiolabeled chemokine (125I SDF-1), both in the following medium (human AB serum with 10 mM HEPES added to stabilize at pH 7.4). All assays were then incubated for 3 hrs at 4° C. with gentle agitation.

Sequence of CXCR7 receptor (P25106 whole entry): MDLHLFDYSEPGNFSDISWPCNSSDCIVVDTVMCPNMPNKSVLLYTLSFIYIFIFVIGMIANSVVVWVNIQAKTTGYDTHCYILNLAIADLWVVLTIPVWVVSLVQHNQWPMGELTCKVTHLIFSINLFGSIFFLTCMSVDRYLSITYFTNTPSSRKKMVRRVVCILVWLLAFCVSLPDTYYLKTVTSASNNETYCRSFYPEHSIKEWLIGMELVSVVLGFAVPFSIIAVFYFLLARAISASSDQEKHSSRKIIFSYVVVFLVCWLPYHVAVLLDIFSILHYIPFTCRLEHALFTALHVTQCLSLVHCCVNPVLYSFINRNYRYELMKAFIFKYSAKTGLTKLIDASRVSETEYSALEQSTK

Row | SMILES | IC50
1 | O=C(N[C@H]1CCN(c2nccn3cccc23)C1)c1ncc2cc(Cl)ccc2n1 [Compound 1.053] | ≤ 500 nM
2 | O=C(N[C@H]1CCN(c2nccn3ccnc23)C1)c1csc(N2CCC2)n1 [Compound 1.026] | ≤ 500 nM
3 | O=C(N[C@H]1CCN(c2nccn3cnnc23)C1)c1cn(-c2ccccc2)cn1 [Compound 1.035] | ≤ 500 nM
4 | O=C(N[C@H]1CCN(c2nccn3cnnc23)C1)c1coc(-c2ccccc2)n1 [Compound 1.069] | ≤ 500 nM
5 | O=C(N[C@H]1CCN(c2nccn3nccc23)C1)c1ncn(-c2ccccc2)n1 [Compound 1.018] | 2500 to 15000 nM
6 | Cc1ccc2nc(C(=O)N[C@H]3CCN(c4nc(C)cn5cccc45)C3)ncc2c1 [Compound 1.019] | ≤ 500 nM
7 | CS(=O)(=O)c1ccc(-n2cnc(C(=O)N[C@H]3CCN(c4nccn5ccnc45)C3)n2)cc1 [Compound 1.005] | 2500 to 15000 nM
8 | O=C(N[C@@H]1CCN(c2nccn3ccnc23)C1)c1ncn(-c2ccc(F)cc2)n1 [Compound 1.010] | 500 to 2500 nM
9 | O=C(N[C@H]1CCN(c2nccn3cccc23)C1)c1cnc(C2CC2)cn1 [Compound 1.052] | ≤ 500 nM
10 | CCc1cnc(C(=O)N[C@H]2CCN(c3nccn4cccc34)C2)nc1 [Compound 1.065] | ≤ 500 nM
11 | Cc1cn2cccc2c(N2CC[C@H](NC(=O)c3csc(-c4ccccc4)n3)C2)n1 [Compound 1.023] | ≤ 500 nM
12 | O=C(N[C@H]1CCN(c2nccn3ncnc23)C1)c1ccn(-c2ccc(F)cc2)n1 [Compound 1.067] | ≤ 500 nM
13 | O=C(NC1(CO)CCN(c2nccn3ccnc23)C1)c1ncn(-c2ccccc2)n1 (stereo not shown) [Compound 1.050] | ≤ 500 nM
14 | CC1(O)CCN(c2nc(C(=O)N[C@H]3CCN(c4nccn5cccc45)C3)cs2)CC1 [Compound 1.055] | ≤ 500 nM
15 | Cc1cn2cccc2c(N2CC[C@H](NC(=O)c3ncn(-c4ccc(Cl)cc4)n3)C2)n1 [Compound 1.022] | ≤ 500 nM
16 | O=C(N[C@H]1CCN(c2nccn3cccc23)C1)c1ncc(C2CC2)cn1 [Compound 1.071] | ≤ 500 nM
17 | O=C(N[C@H]1CCN(c2nccn3cccc23)C1)c1cn(-c2ccccc2)nn1 [Compound 1.017] | ≤ 500 nM
18 | CCc1cn2cccc2c(N2CC[C@H](NC(=O)c3csc(N4CCC(O)CC4)n3)C2)n1 [Compound 1.012] | ≤ 500 nM
19 | CC(C)c1cn2cccc2c(N2CC[C@H](NC(=O)c3ncn(-c4ccc(F)cc4)n3)C2)n1 [Compound 1.007] | 500 to 2500 nM
20 | O=C(NC1(C(=O)O)CCN(c2nccn3cccc23)C1)c1ccn(-c2ccc(F)cc2)n1 (stereo not shown) [Compound 1.043] | 2500 to 15000 nM

Row | SMILES | IC50
21 | N#Cc1ccc(-n2cnc(C(=O)N[C@H]3CCN(c4nccn5ccnc45)C3)n2)cc1 [Compound 1.002] | 2500 to 15000 nM
22 | O=C(NC1CN(c2nccn3cccc23)C[C@@H]1O)c1ccn(-c2ccc(F)cc2)n1 (stereo partly shown) [Compound 1.062] | ≤ 500 nM
23 | CC(C)c1cnc(C(=O)N[C@H]2CCN(c3nccn4ccnc34)C2)nc1 [Compound 1.064] | ≤ 500 nM
24 | CC(C)c1cnc(C(=O)NC2(CO)CCN(c3nccn4cccc34)C2)nc1 (stereo not shown) [Compound 1.060] | ≤ 500 nM
25 | Cc1ccccc1-n1ccc(C(=O)N[C@H]2CCN(c3nccn4ccnc34)C2)n1 [Compound 1.057] | ≤ 500 nM
26 | Cc1cn2cccc2c(N2CC[C@H](NC(=O)c3ccn(-c4ccc(Cl)cc4)n3)C2)n1 [Compound 1.029] | ≤ 500 nM
27 | Cc1cnc(C(=O)N[C@H]2CCN(c3nccn4cccc34)C2)nc1 [Compound 1.063] | 500 to 2500 nM
28 | Cc1ccc2nc(C(=O)N[C@H]3CCN(c4nccn5cnnc45)C3)ncc2c1 [Compound 1.044] | ≤ 500 nM
29 | O=C(NC1(CO)CCN(c2nccn3cccc23)C1)c1ncn(-c2ccccc2)n1 (stereo not shown) [Compound 1.051] | ≤ 500 nM
30 | O=C(NC1(CO)CCN(c2nccn3ccnc23)C1)c1ccn(-c2ccc(F)cc2)n1 (stereo not shown) [Compound 1.059] | ≤ 500 nM
31 | O=C(N[C@H]1CCN(c2nccn3ccnc23)C1)c1ncn(-c2cccc(F)c2)n1 [Compound 1.016] | ≤ 500 nM
32 | O=C(NC1(CO)CCN(c2nccn3cccc23)C1)c1csc(N2CCC(O)CC2)n1 (stereo not shown) [Compound 1.072] | ≤ 500 nM
33 | Cc1nc(C(=O)N[C@H]2CCN(c3nccn4ccnc34)C2)nn1-c1ccc(F)cc1 [Compound 1.001] | ≤ 500 nM
34 | CCc1cn2cccc2c(N2CC[C@H](NC(=O)c3ncn(-c4ccc(F)cc4)n3)C2)n1 [Compound 1.013] | ≤ 500 nM
35 | Cc1ccccc1-c1nc(C(=O)N[C@H]2CCN(c3nccn4ccnc34)C2)cs1 [Compound 1.045] | ≤ 500 nM
36 | Cc1cn2cccc2c(N2CC[C@H](NC(=O)c3cn(-c4ccccc4)cn3)C2)n1 [Compound 1.030] | ≤ 500 nM
37 | CC(C)c1cn2cccc2c(N2CC[C@H](NC(=O)c3ncn(-c4ccccc4)n3)C2)n1 [Compound 1.008] | 500 to 2500 nM
38 | CC1(O)CCN(c2nc(C(=O)N[C@H]3CCN(c4nccn5ccnc45)C3)cs2)CC1 [Compound 1.056] | 500 to 2500 nM
39 | O=C(N[C@H]1CCN(c2nccn3ccnc23)C1)c1ccc(N2CCC(O)CC2)nn1 [Compound 1.011] | 2500 to 15000 nM
40 | O=C(N[C@H]1CCN(c2nccn3cccc23)C1)c1ncn(-c2ccc(F)cc2)n1 [Compound 1.003] | ≤ 500 nM

Row | SMILES | IC50
41 | O=C(NC1(CO)CCN(c2nccn3cccc23)C1)c1ccn(-c2ccc(Cl)cc2)n1 (stereo not shown) [Compound 1.074] | ≤ 500 nM
42 | O=C(N[C@H]1CCN(c2nccn3ccnc23)C1)c1csc(N2CCCC2)n1 [Compound 1.034] | ≤ 500 nM
43 | CC(C)c1cn2cccc2c(N2CC[C@H](NC(=O)c3csc(N4CCC(O)CC4)n3)C2)n1 [Compound 1.009] | ≤ 500 nM
44 | O=C(N[C@H]1CCN(c2nccn3ccnc23)C1)c1cn(-c2ccccc2)cn1 [Compound 1.036] | ≤ 500 nM
45 | Cc1cn2cccc2c(N2CC[C@H](NC(=O)c3csc(N4CCCC4)n3)C2)n1 [Compound 1.025] | ≤ 500 nM
46 | NC(=O)C1(NC(=O)c2ccn(-c3ccc(F)cc3)n2)CCN(c2nccn3cccc23)C1 (stereo not shown) [Compound 1.042] | ≤ 500 nM
47 | CN(C)c1cnc(C(=O)N[C@H]2CCN(c3nccn4cccc34)C2)cn1 [Compound 1.049] | ≤ 500 nM
48 | O=C(N[C@H]1CCN(c2nccn3ccnc23)C1)c1coc(-c2ccccc2)n1 [Compound 1.070] | ≤ 500 nM
49 | Cc1cn2cccc2c(N2CC[C@H](NC(=O)c3ncn(-c4ccccc4)n3)C2)n1 [Compound 1.040] | ≤ 500 nM
50 | Cc1cn2ccnc2c(N2CC[C@H](NC(=O)c3ncn(-c4ccccc4)n3)C2)n1 [Compound 1.032] | ≤ 500 nM
51 | O=C(N[C@H]1CCN(c2nccn3ccnc23)C1)c1ncn(-c2ccc(F)c(F)c2)n1 [Compound 1.014] | ≤ 500 nM
52 | O=C(NC1(CO)CCN(c2nccn3ccnc23)C1)c1csc(N2CCC(O)CC2)n1 (stereo not shown) [Compound 1.058] | ≤ 500 nM
53 | Cc1cn2cccc2c(N2CC[C@H](NC(=O)c3coc(-c4ccccc4)n3)C2)n1 [Compound 1.024] | ≤ 500 nM
54 | CC(O)c1cnc(C(=O)N[C@H]2CCN(c3nccn4cccc34)C2)nc1 (stereo partly shown) [Compound 1.033] | 500 to 2500 nM
55 | O=C(N[C@H]1CCN(c2nccn3cnnc23)C1)c1csc(-c2ccccc2)n1 [Compound 1.066] | ≤ 500 nM
56 | Cc1cn2cccc2c(N2CC[C@H](NC(=O)c3ncn(-c4ccc(F)cc4)n3)C2)n1 [Compound 1.020] | ≤ 500 nM
57 | O=C(N[C@H]1CCN(c2nccn3ccnc23)C1)c1ncn(-c2ccccc2F)n1 [Compound 1.006] | ≤ 500 nM
58 | Cc1cn2ccnc2c(N2CC[C@H](NC(=O)c3cn(-c4ccccc4)cn3)C2)n1 [Compound 1.031] | ≤ 500 nM
